# According to patent US6849416B2, “Monoclonal antibody” (priority 2001, dated 2005):
# Where a SMILES comes first, the peptide text is derived from it. [ ]: non-standard residue; d: D form. The star is where a group is joined. Nle = CCCC[C@H](N)C(=O)O; Cbz = O=C(OCc1ccccc1)*
# Key:
# [1] = test system: human APP751Sw transgenic H4 neuroglioma cell line (released Aβ peptides); test: Treatment of APP751Sw transgenic H4 neuroglioma cells with protease inhibitors, Aβ peptides released into supernatant; type: cell-based; conditions: for Aβ1-40, Aβ1-42, Aβ1-37/38/39 and Aβ2-42 released into cell culture supernatant: versus DMSO control
# Protocol: FIG. 27: two Aβ SDS-PAGE/immunoblots 2 which show a treatment of a human 751APPSw trangenic H4 neuroglioma cell line with various protease inhibitors (23a) and a dose-dependent effect of calpain inhibitor 1 (23b). The released Aβ peptides were quantified in 4 μl of SDS/thermally denatured cell culture supernatants in each case (cf. FIGS. 23a,b). For comparison, the sAPPα concentration in the cell culture supernatants was determined.
# In panel a: (1) is DMSO control; (2) is 50 μM calpain inhibitor 1; (3) is 100 μM calpain inhibitor 3; (4) is 5 μM MG132; (5) is 25 μM calpeptin; (a-d) is mix of synthetic Aβ peptides.
# The released Aβ peptides were quantified in 4 μl of SDS/thermally denatured cell culture supernatants in each case. The dose-dependent effect of calpain inhibitor 1 on the Aβ peptide concentration in the supernatant was investigated, comparing with the DMSO control.
# The released Aβ peptides were quantified in 4 μl of SDS/thermally denatured cell culture supernatants in each case. The dose-dependent effect of calpain inhibitor 1 on the proportion of an Aβ peptide species as a percentage of the total Aβ peptide concentration was investigated, comparing with the DMSO control.
# If the samples are in liquid form (e.g. cell culture supernatants, cell homogenates) and if the Aβ peptide concentration is sufficiently high it is possible to take up one volume unit of sample with one volume unit of the double concentrated SDS-SB-2 (table 3).
# A comparative investigation was carried out on the Aβ peptide pattern in neuroglioma cells (H4) which have been transfected with humanAPP751Sw. […] Aβ2-42 can also be indentified. After treatment with inhibitors of β/γ-secretases (calpain inhibitor I&II, calpeptin, MG132, leupeptin), besides Aβ1-40 and Aβ1-42 there is also a reduction in the C-terminally truncated Aβ peptides 1-37/38/39 and the N-terminally truncated Aβ2-42 (FIGS. 28a,b).
# [2] = Cryoprecipitation of synthetic peptide dissolved in water; type: physicochemical; conditions: dissolved with comparable concentration in water, freezing
# Excerpt: This makes it probable that the reduction caused by cryoprecipitation in Aβ1-42 in human CSF derives predominantly from the aggregate-bound proportion of the peptide. In the case of comparatively hydrophobic aggregates—for example lipoprotein-containing complexes—a loss through cryoprecipitation would not be surprising. In this connection, it is shown hereinafter (4.2.4) that ε4-positive patients in the NDC-3CP group show a particularly high rate of CP-related reduction in Aβ1-42 and have CSF levels which are approximately as low as ε4-positive AD-3CP patients.
# [3] = Aβ IPG 2D-PAGE of synthetic Aβ peptides (isoelectric point); type: physicochemical; conditions: IPG pH 4-7
# Protocol: The samples are taken up in IPG-SB (table 5a). Dry substance and Dynabeads magnetically immobilized by means of MSP (see below) are taken up directly with the IPG-SB immediately before IEF and incubated in an ultrasonic bath at 37° C. for 10 min. Taking up of liquid biological samples: after removal of the mixed bed ion exchanger (Serdolit MB-1), the IPB-SB is divided into aliquots (e.g. 100 μl) in Eppendorf sample vessels and concentrated to the dry substance at room temperature using a SpeedVac. The IPG-SB introduced as dry substance is taken up with sample with the ratio 1:1 by volume (e.g. 100 μl) and, after a vortex step (1 min.), incubated in an ultrasonic bath at 37° C. for 10 min.
# The IEF using commercial IPG “[…]” took place in accordance with the manufacturer's protocol (Amersham Pharmacia Biotech/brief instructions 71-5009-57, edition AA, 99-04). IPG “[…]” (4-7, linear pH gradient, length 7 cm) were rehydrogenated to a gel thickness of 0.5 mm using the rehydrogenation solution from table 5a at room temperature overnight. The sample loading device (“sample cups”) is placed on the basic side of the IPG strips, at about pH 6.5 (cathodic loading) and 30 μl of sample is loaded. The IPG-IEF takes place for 30 min/300V, 30 min/800V, 30 min./1400V and 5 h/2000V ([…]).
# The IPG-IEF is followed by equilibration of the “[…]” for 2×10 min. (table 5b). The first equilibration solution contains DTT (50 mg/5 ml), the second solution iodoacetamide (240 mg/5 ml) for neutralization of excess DTT, which otherwise leads to color artefacts on silver staining of the gels. The second equilibration step is unnecessary for the Western immunoblot. The equilibrated IPG “[…]” are fixed on the stacking gel of the Aβ SDS-PAGE using agarose solution (table 5c). A sample well for loading synthetic Aβ peptides or Mr marker proteins for comparison is made in the hot agarose using a Teflon tooth. The electrophoresis takesplace in accordance with 3.1.2.
Compound,"Aβ1-40, Aβ1-42, Aβ1-37/38/39 and Aβ2-42 released into cell culture supernatant [1]",isoelectric point [3],other results
CC(C)C[C@@H](C=O)NC(=O)[C@H](CC(C)C)NC(=O)[C@H](CC(C)C)NC(=O)OCc1ccccc1 [MG132] (Cbz-Leu-Leu-Leu-aldehyde),reduction,,
CCCC[C@@H](C=O)NC(=O)[C@H](CC(C)C)NC(=O)[C@H](CC(C)C)NC(C)=O [calpain inhibitor 1] (Ac-Leu-Leu-[Nle]-aldehyde),dose-dependent reduction,,"Aβ1-42 concentration at low concentration of the protease inhibitor ([1]; low inhibitor concentration): initial (paradoxical) increase; Aβ2-42 concentration in relation to the increase in Aβ1-42 ([1]; low inhibitor concentration): did not correlate with an increase; Aβ1-40, Aβ1-42, Aβ1-37/38/39 and Aβ2-42 released into cell culture supernatant ([1]; listed as calpain inhibitor I): reduction"
CSCC[C@@H](C=O)NC(=O)[C@H](CC(C)C)NC(=O)[C@H](CC(C)C)NC(C)=O [calpain inhibitor II] (Ac-Leu-Leu-Met-aldehyde),reduction,,
CCCC[C@@H](C=O)NC(=O)[C@H](CC(C)C)NC(=O)OCc1ccccc1 [calpeptin],reduction,,
CC(=O)N[C@@H](CC(C)C)C(=O)N[C@@H](CC(C)C)C(=O)N[C@H](C=O)CCCNC(=N)N [leupeptin],reduction,,
Aβ1-42: synthetic β-amyloid peptide 1-42 (Bachem),,5.37,cryoprecipitation compared with Aβ1-42 in human CSF [2]: distinctly less cryoprecipitation
"Aβ2-40: synthetic β-amyloid peptide 2-40, lacking N-terminal aspartate",,6.37,
Aβ3-40: synthetic β-amyloid peptide 3-40,,6.37,
